Source: PubChem BioAssay AID2060611 (Molecular Pharmacology Branch, DTP, NCI, 2025)
“And” between values parts separate entries of the source, which are not always exact repeats. Equal entries are not always repeated.

Test system: 628569-122-R-J1-PDC complex spheroid viability
Experiment: Anticancer human tumor 628569-122-R-J1-PDC patient-derived head and neck squamous carcinoma cell line growth inhibition [CLK]
Settings: for viability, T/C: stronger effect = lower value
Text: A high-throughput screen of multi-cell type tumor spheroids was designed to identify active combinations of […] and targeted small molecules. Complex spheroids include a stromal component modeled by human endothelial cells (HUVEC) and fibroblasts modeled by human mesenchymal stem cells (MSCs). The concentration ranges selected for each drug and investigational agent were based upon clinically achievable concentrations if the clinical Cmax of the agent was known.
Compounds. The drugs and investigational agents: cirtuvivint (SM08502; NSC835563), CC-671 (NSC850746), vemurafenib (NSC761431), tapotoclax (NSC804041), sotorasib (NSC818433), adagrasib (NSC831453), MRTX-1133 (NSC836407), BAY2416964 (NSC825713), copanlisib (NSC816437), inavolisib (NSC800729), abemaciclib (NSC768073), osimertinib (NSC779217), entinostat (NSC756642), eltanexor (KPT-8602, NSC794443), venetoclax (NSC766270), ceralasertib (NSC777638), bortezomib (NSC756655), olaparib (NSC753686), talazoparib (NSC767125), alisertib (NSC759677), peposertib (NSC802822), gemcitabine (NSC613327), 5-fluorouracil (NSC19893), SN-38 (NSC673596), oxaliplatin (NSC266046), paclitaxel (NSC125973), and doxorubicin (NSC123127), were obtained from the National Cancer Institute (NCI) Developmental Therapeutics Program Chemical Repository. The FDA-approved anticancer drug set is available from the Developmental Therapeutics Program at https://dtp.cancer.gov/organization/dscb/obtaining/available plates.htm. […] The stock solutions were prepared in dimethyl sulfoxide (DMSO, Sigma-Aldrich, St. Louis, MO, cat. D2650), except for the platinum complexes which were prepared in saline (Quality Biological, Gaithersburg, MD, cat. 114-055-101), at 800-fold the tested concentration and stored at -70 degrees C prior to their use. All drugs and investigational agents were tested over a range starting from a high concentration at or near the clinical Cmax and decreasing in half-log increments. If the clinical Cmax for an agent had not been determined, the highest concentration tested was 10 microM.
Cell Culture. All cells were maintained in an incubator at 37 degrees C and 5% CO2 with 95% humidity. The PDC lines were cultured according to standard operating procedures established by the NCI PDMR. Briefly, all PDCs were thawed and cultured in Matrigel-coated flasks prepared with a working solution of 1X Ham's F-12 nutrient mix, without supplementation (Invitrogen, Waltham, MA, cat. 11765054), 100 U/mL penicillin-streptomycin (Invitrogen, cat. 15140122), and 2.5% Matrigel (Corning Inc., Corning, NY, cat. 354248) for the first three passages. The 947758-054-R-J2-PDC line was cultured in 6B/Colon 1A media, which includes advanced DMEM/F-12 (Thermo Fisher Scientific, cat. 12634028), 10 mM HEPES (Thermo Fisher Scientific, cat. 15630080), 1X GlutaMAX supplement (Thermo Fisher Scientific, cat. 35050061), 0.1 mg/mL primocin (InvivoGen, cat. ant-pm-2), 10% defined fetal bovine serum, heat inactivated (HyClone Laboratories Inc., cat. SH30070.03HI), 1.25 mM N-Acetyl-L-cysteine (Sigma-Aldrich, cat. A9165), 10 mM nicotinamide (Sigma-Aldrich, cat. N0636), 1X B-27 supplement (Thermo Fisher Scientific, cat. 17504044), 1X N-2 supplement (Thermo Fisher Scientific, cat. 17502048), and 10 microM Y-27632 dihydrochloride (Tocris Bioscience, cat. 1254). The 876862-298-R-J1-PDC was cultured in 6E media, which includes all 6B/Colon 1A media components plus 50% L-WRN conditioned media (ATCC, cat. CRL-3276), 50 ng/mL recombinant human EGF recombinant protein (hEGF; Thermo Fisher Scientific, cat. PHG0311), 10 ng/mL recombinant human fibroblast growth factor 10 (hGFG-10; PeproTech, cat. 100-26), 1 ng/mL recombinant human fibroblast growth factor 2 (hFGF-2; PeproTech, cat. 100-18B), and 1 µM prostaglandin E2 (PGE2; Tocris, cat. 2296). The 227483-062-R1-J1-PDC line was cultured in Panc media, containing all 6E components except hFGF-2, with the addition of 500 nM SB-431542 (Selleckchem, cat. S1067) and 10 nM gastrin (Tocris, cat. 3006). […]
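Note: spheroids exposed to agents for seven days before readout.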
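Throughout, for viability, T/C: 100% = DMSO vehicle control viability.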

With `CCN1CCN(Cc2ccc(Nc3ncc(F)c(-c4cc(F)c5nc(C)n(C(C)C)c5c4)n3)nc2)CC1` the viability, T/C (compound 0.00316 µM) was 86.6% and 89.6%, the viability, T/C (compound 0.01 µM) was 81.3% and 70% and the viability, T/C (compound 0.0316 µM) was 73.7% and 72.2%. The viability, T/C (compound 0.1 µM) was 70.1% and 68.2%, the viability, T/C (compound 0.316 µM) was 105% and 79.5% and the viability, T/C (compound 1 µM) was 182% and 142%. For the same compound, the IC50 (curve of compound) was greater than 1 µM.
With `NC(=O)C(=Cn1cnc(-c2cc(C(F)(F)F)cc(C(F)(F)F)c2)n1)c1cncnc1` + CN1CCN(c2cc(C(=O)Nc3cc4cc(-c5cnn(C)c5)ccc4cn3)ccn2)CC1 the IC50 (curve of first compound, second compound 0.0316 µM) was 0.681 µM, the IC50 (curve of first compound, second compound 0.1 µM) was 0.0285 µM and the IC50 (curve of first compound, second compound 0.316 µM) was less than 0.00949 µM. For the same compound, the IC50 (curve of first compound, second compound 1 µM) was less than 0.00949 µM, the IC50 (curve of first compound, second compound 3.16 µM) was less than 0.00949 µM and the IC50 (curve of first compound, second compound 10 µM) was less than 0.00949 µM. For the same compound, the viability, T/C (second compound 0.0316 µM, first compound 0.00949 µM) was 79.3%, the viability, T/C (second compound 0.0316 µM, first compound 0.03 µM) was 67.5% and the viability, T/C (second compound 0.0316 µM, first compound 0.0949 µM) was 76%. It also gave a viability, T/C (second compound 0.0316 µM, first compound 0.3 µM) of 76.1%, a viability, T/C (second compound 0.0316 µM, first compound 0.949 µM) of 38.1% and a viability, T/C (second compound 0.0316 µM, first compound 3 µM) of 41.8%. The viability, T/C (second compound 0.1 µM, first compound 0.00949 µM) was 47.6%, the viability, T/C (second compound 0.1 µM, first compound 0.03 µM) was 53% and the viability, T/C (second compound 0.1 µM, first compound 0.0949 µM) was 47.4%. It also gave a viability, T/C (second compound 0.1 µM, first compound 0.3 µM) of 35%, a viability, T/C (second compound 0.1 µM, first compound 0.949 µM) of 22.3% and a viability, T/C (second compound 0.1 µM, first compound 3 µM) of 13.7%. It also gave a viability, T/C (second compound 0.316 µM, first compound 0.00949 µM) of 31.6%, a viability, T/C (second compound 0.316 µM, first compound 0.03 µM) of 22.2% and a viability, T/C (second compound 0.316 µM, first compound 0.0949 µM) of 8.26%. It also gave a viability, T/C (second compound 0.316 µM, first compound 0.3 µM) of 6.76%, a viability, T/C (second compound 0.316 µM, first compound 0.949 µM) of 4.81% and a viability, T/C (second compound 0.316 µM, first compound 3 µM) of 2.61%. The viability, T/C (second compound 1 µM, first compound 0.00949 µM) was 8.6%, the viability, T/C (second compound 1 µM, first compound 0.03 µM) was 7.83% and the viability, T/C (second compound 1 µM, first compound 0.0949 µM) was 5.77%. It also gave a viability, T/C (second compound 1 µM, first compound 0.3 µM) of 4.21%, a viability, T/C (second compound 1 µM, first compound 0.949 µM) of 5.37% and a viability, T/C (second compound 1 µM, first compound 3 µM) of 1.7%. For the same compound, the viability, T/C (second compound 3.16 µM, first compound 0.00949 µM) was 6.02%, the viability, T/C (second compound 3.16 µM, first compound 0.03 µM) was 7.42% and the viability, T/C (second compound 3.16 µM, first compound 0.0949 µM) was 10.8%. The viability, T/C (second compound 3.16 µM, first compound 0.3 µM) was 16.6%, the viability, T/C (second compound 3.16 µM, first compound 0.949 µM) was 4.54% and the viability, T/C (second compound 3.16 µM, first compound 3 µM) was 1.65%. For the same compound, the viability, T/C (second compound 10 µM, first compound 0.00949 µM) was 4.54%, the viability, T/C (second compound 10 µM, first compound 0.03 µM) was 4.5% and the viability, T/C (second compound 10 µM, first compound 0.0949 µM) was 6.08%. The viability, T/C (second compound 10 µM, first compound 0.3 µM) was 5.71%, the viability, T/C (second compound 10 µM, first compound 0.949 µM) was 1.68% and the viability, T/C (second compound 10 µM, first compound 3 µM) was 1.21%.
